Data taken from patent publication US9440984B2, “Pyrrolotriazines as ALK inhibitors” (Cephalon, Inc., priority 2013, dated 2016).
Like-named read-outs stand apart in the source and are kept apart here. Values belong to the molecule of their own block, whether it stands above or below them.

What was measured:
ALK [1] = biological target: T1, ALK (Homo sapiens, UniProt Q9UM73); test: ALK autophosphorylation enzyme assay; assay type: biochemical
Target sequence in this assay (Q9UM73 19-1620): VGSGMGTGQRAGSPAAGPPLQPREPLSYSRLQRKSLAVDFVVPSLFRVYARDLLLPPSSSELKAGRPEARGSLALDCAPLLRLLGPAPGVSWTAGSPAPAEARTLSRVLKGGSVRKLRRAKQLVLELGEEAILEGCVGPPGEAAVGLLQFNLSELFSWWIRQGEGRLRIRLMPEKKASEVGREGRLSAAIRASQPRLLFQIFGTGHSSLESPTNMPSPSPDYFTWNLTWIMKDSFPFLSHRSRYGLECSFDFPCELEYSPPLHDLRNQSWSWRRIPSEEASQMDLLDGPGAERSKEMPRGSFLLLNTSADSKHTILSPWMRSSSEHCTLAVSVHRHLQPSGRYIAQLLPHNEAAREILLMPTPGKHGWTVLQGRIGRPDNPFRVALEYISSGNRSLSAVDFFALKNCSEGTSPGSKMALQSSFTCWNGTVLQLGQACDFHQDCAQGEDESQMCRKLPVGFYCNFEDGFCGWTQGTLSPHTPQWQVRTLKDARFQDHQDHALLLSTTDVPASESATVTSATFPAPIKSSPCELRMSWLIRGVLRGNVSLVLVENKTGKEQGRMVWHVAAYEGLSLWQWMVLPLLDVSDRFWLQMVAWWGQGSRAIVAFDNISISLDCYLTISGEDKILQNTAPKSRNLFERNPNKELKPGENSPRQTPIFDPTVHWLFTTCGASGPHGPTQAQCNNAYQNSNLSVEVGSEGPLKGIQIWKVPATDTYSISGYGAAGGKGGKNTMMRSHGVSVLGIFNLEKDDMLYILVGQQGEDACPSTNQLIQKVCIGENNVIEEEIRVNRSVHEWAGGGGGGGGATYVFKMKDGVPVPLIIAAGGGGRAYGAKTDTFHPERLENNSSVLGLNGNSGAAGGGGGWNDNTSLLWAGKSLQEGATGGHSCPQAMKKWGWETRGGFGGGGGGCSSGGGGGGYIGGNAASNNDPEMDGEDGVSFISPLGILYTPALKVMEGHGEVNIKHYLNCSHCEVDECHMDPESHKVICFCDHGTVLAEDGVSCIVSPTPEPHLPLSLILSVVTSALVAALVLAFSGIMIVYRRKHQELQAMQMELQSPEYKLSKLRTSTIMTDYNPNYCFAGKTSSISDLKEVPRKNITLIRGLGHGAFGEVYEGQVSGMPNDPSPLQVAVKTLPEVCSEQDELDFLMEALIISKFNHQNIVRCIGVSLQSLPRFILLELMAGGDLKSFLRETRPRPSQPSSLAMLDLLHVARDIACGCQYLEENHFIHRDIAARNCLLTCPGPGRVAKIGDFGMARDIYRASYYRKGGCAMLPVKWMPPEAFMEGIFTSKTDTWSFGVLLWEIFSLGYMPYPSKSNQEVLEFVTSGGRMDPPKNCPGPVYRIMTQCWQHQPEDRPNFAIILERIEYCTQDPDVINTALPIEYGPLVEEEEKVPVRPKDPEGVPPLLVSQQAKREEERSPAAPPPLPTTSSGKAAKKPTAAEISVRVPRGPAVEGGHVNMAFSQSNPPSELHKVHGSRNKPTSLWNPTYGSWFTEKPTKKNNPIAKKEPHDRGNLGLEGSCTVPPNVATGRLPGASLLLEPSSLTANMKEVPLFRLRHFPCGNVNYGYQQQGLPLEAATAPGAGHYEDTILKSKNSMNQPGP

ALK [2] = biological target: T1, ALK; test: ALK autophosphorylation cellular assay; assay type: cell-based; conditions: read-out: ALK Cell IC50
Target sequence in this assay (Q9UM73 with tags, fused parts or gaps): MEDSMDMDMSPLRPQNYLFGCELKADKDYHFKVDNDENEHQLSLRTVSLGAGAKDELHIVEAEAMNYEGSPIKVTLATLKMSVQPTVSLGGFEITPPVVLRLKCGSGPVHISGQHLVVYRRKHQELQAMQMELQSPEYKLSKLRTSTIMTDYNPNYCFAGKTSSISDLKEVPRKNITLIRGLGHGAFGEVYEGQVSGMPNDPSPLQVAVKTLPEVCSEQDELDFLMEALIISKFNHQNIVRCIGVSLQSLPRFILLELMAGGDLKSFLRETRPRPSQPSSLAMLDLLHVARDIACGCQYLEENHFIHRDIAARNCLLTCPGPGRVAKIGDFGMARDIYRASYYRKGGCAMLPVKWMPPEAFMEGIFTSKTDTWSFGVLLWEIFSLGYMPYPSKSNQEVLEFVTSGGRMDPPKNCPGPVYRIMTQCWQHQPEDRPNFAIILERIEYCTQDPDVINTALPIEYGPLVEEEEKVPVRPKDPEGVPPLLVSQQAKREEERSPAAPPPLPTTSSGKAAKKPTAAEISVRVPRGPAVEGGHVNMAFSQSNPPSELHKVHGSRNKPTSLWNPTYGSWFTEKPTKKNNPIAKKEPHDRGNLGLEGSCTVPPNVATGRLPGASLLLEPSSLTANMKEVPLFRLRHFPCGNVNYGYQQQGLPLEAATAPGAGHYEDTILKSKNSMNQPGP

[3] = Rat pharmacokinetic (PK) studies
[4] = PK/PD study: compound levels in plasma and tumor lysates (LC/MS-MS); assay type: in vivo; conditions: Scid mice, single p.o. 30 mg/kg, 6 h and 16 h post dose
Description: Exponentially growing cells were implanted subcutaneously to the left flank of each mouse. The mice were monitored and when the tumor xenograft volumes reached approximately 300 to 500 mm3, mice received a single oral administration of either vehicle PEG-400 or the compound of interest (e.g., Examples 14, 16, 16a, and/or 16b) formulated in vehicle. At indicated time points postdosing, the mice were sacrificed, the blood was collected and centrifuged, and the plasma was collected. The tumors were excised and disrupted with a hand-held tissue blender in completed FRAK lysis buffer without Triton X-100. After brief sonication, the lysates were cleared by centrifugation, mixed with sample buffer, and subjected to SDS-PAGE for ALK immunoblotting as described above. The individual bands of phospho- and total NPM-ALK were scanned and quantified with the Gel Pro Analyzer software (Media Cybernetics, Inc.). The relative NPM-ALK tyrosine phosphorylation (phospho-NPMALK/NPM-ALK ratio) of each sample at indicated time points was then calculated, with the average value of vehicle-treated sample(s) as 100. The compound levels in plasma and tumor lysates were measured by liquid chromatography/tandem mass spectrometry (LC/MS-MS).

Sup-M2 ALCL xenografts = assay type: in vivo; conditions: Scid mice, p.o., 10 days; for anti-tumor efficacy (tumor regression): Sup-M2 xenografts
[5] = Sprague-Dawley rat, i.v., 1 mg/kg
[6] = Sprague-Dawley rat, p.o., 5 mg/kg
[7] = Sprague-Dawley, rat, in vivo, po, 5 mg/kg
[8] = Sprague-Dawley, rat, in vivo, iv, 1 mg/kg

IC50 (ALK [1]): 3.33 nM | IC50 (ALK [2]): 50 nM
Compound: COCCN1CC[C@@H](c2ccc(Nc3ncc4ccc(-c5ccccc5OC)n4n3)c(OC)c2)[C@@H](O)C1 (racemic) [Example 1, (±)-3,4-cis-1-(2-Methoxy-ethyl)-4-{3-methoxy-4-[7-(2-methoxy-phenyl)-pyrrolo[2,1-f][1,2,4]triazin-2-ylamino]-phenyl}-piperidin-3-ol]

IC50 (ALK [1]): 14 nM
Compound: COc1cc([C@@H]2CCNC[C@@H]2O)ccc1Nc1ncc2ccc(-c3cccnc3OC)n2n1 (racemic) [Example 4, (±)-3,4-cis-4-{3-Methoxy-4-[7-(2-methoxy-pyridin-3-yl)-pyrrolo[2,1-f][1,2,4]triazin-2-ylamino]-phenyl}-piperidin-3-ol]

IC50 (ALK [1]): 5.66 nM
Compound: COc1cc([C@@H]2CCNC[C@H]2F)ccc1Nc1ncc2ccc(-c3ccccc3OC)n2n1 (racemic) [Example 5, (±)-[4-(3,4-trans-3-Fluoro-piperidin-4-yl)-2-methoxy-phenyl]-[7-(2-methoxy-phenyl)-pyrrolo[2,1-f][1,2,4]triazin-2-yl]-amine]

IC50 (ALK [1]): 28.2 nM
Compound: COc1cc(C2CCN(CCO)CC2(F)F)ccc1Nc1ncc2ccc(-c3ccccc3OC)n2n1 (racemic) [Example 9, (±)-2-(3,3-Difluoro-4-{3-methoxy-4-[7-(2-methoxy-phenyl)-pyrrolo[2,1-f][1,2,4]triazin-2-ylamino]-phenyl}-piperidin-1-yl)-ethanol]

IC50 (ALK [1]): 25.2 nM
Compound: COc1cc([C@@H]2CCN(CC(C)(C)O)C[C@H]2F)ccc1Nc1ncc2ccc(-c3cccnc3OC)n2n1 (racemic) [Example 10, (±)-1-(3,4-trans-3-Fluoro-4-{3-methoxy-4-[7-(2-methoxy-pyridin-3-yl)-pyrrolo[2,1-f][1,2,4]triazin-2-ylamino]-phenyl}-piperidin-1-yl)-2-methyl-propan-2-ol]

IC50 (ALK [1]): 34 nM
Compound: COc1cc(C2CCN(CCO)CC2(F)F)ccc1Nc1ncc2ccc(-c3cccnc3OC)n2n1 (racemic) [Example 11, (±)-2-(3,3-Difluoro-4-{3-methoxy-4-[7-(2-methoxy-pyridin-3-yl)-pyrrolo[2,1-f][1,2,4]triazin-2-ylamino]-phenyl}-piperidin-1-yl)-ethanol]

IC50 (ALK [1]): 13.7 nM | IC50 (ALK [2]): 200 nM
Compound: COc1cc(C2CCNCC2(F)F)ccc1Nc1ncc2ccc(-c3cccnc3OC)n2n1 (racemic) [Example 12, (±)-[4-(3,3-Difluoro-piperidin-4-yl)-2-methoxy-phenyl]-[7-(2-methoxy-pyridin-3-yl)-pyrrolo[2,1-f][1,2,4]triazin-2-yl]-amine]

Compound: COc1cc([C@@H]2CCN(CCO)C[C@@H]2O)ccc1Nc1ncc2ccc(-c3ccccc3OC)n2n1 (racemic) [Example 14, (±)-3,4-cis-1-(2-Hydroxy-ethyl)-4-{3-methoxy-4-[7-(2-methoxy-phenyl)-pyrrolo[2,1-f][1,2,4]triazin-2-ylamino]-phenyl}-piperidin-3-ol]
AUC0-∞ [3, 5]: 371 ± 6 ng·h/mL | CL [3, 5]: 46 ± 1 mL/min/kg | Vd [3, 5]: 9.9 ± 2 L/kg | t1/2 [3, 5]: 2.5 ± 0.6 h | AUC0-∞ [3, 6]: 479 ± 83 ng·h/mL | Cmax [3, 6]: 85 ± 15 ng/mL | F % [3, 6]: 26 ± 4% | Tmax [3, 7]: 6 h | rat PK properties (in words) ([3]; rat): acceptable rat PK properties

Compound: COc1cc([C@@H]2CCN(CCO)C[C@H]2O)ccc1Nc1ncc2ccc(-c3ccccc3OC)n2n1 (racemic) [Example 16, (±)-3,4-trans-1-(2-Hydroxy-ethyl)-4-{3-methoxy-4-[7-(2-methoxy-phenyl)-pyrrolo[2,1-f][1,2,4]triazin-2-ylamino]-phenyl}-piperidin-3-ol]
AUC(0-inf) [3, 8]: 459 ± 72 ng·h/mL | Vd [3, 8]: 10.3 ± 1.3 L/kg | clearance [3, 8]: 39 ± 7 mL/min/kg | half-life [3, 8]: 3.2 ± 0.6 h | AUC(0-inf) [3, 7]: 708 ± 63 ng·h/mL | Cmax [3, 7]: 97 ± 10 ng/mL | Tmax [3, 7]: 4 ± 1.2 h | bioavailability [3, 7]: 31 ± 3% | rat PK properties (in words) ([3]; rat): acceptable rat PK properties

Compound: COc1cc([C@H]2CCN(CCO)C[C@@H]2O)ccc1Nc1ncc2ccc(-c3ccccc3OC)n2n1 (single isomer, unassigned) [Example 16b]
plasma and tumor levels, higher than with Example 16a [4]: 4-10 fold | tolerability (body weight loss, overt toxicity) (Sup-M2 ALCL xenografts; 30 mg/kg b.i.d.): well tolerated | tolerability (body weight loss, overt toxicity) (Sup-M2 ALCL xenografts; 55 mg/kg b.i.d.): well tolerated | anti-tumor efficacy (tumor regression) (Sup-M2 ALCL xenografts; 30 mg/kg b.i.d.): Complete tumor regressions | anti-tumor efficacy (tumor regression) (Sup-M2 ALCL xenografts; 55 mg/kg b.i.d.): Complete tumor regressions

IC50 (ALK [1]): 3 nM | IC50 (ALK [2]): 150 nM
Compound: COc1cc(C2CCN(CCO)CC2)ccc1Nc1ncc2ccc(-c3ccccc3OC)n2n1 [Example 18, 2-(4-{3-Methoxy-4-[7-(2-methoxy-phenyl)-pyrrolo[2,1-f][1,2,4]triazin-2-ylamino]-phenyl}-piperidin-1-yl)-ethanol]
